Measured values as given in PubChem BioAssay (NCI).
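Each compound was tested at five concentrations against cells in 96-well plates for 48 hours. GI50 = concentration required for 50% inhibition of growth. TGI is the concentration that stops growth completely.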

How the values were obtained:
Assay in all cases: NCI-60 cell line screen, 48 h
HOP-92 NSCLC = tested on: HOP-92 NSCLC
SF-295 CNS = tested on: SF-295 CNS
HCT-116 colon = tested on: HCT-116 colon
HS 578T breast = tested on: HS 578T breast
EKVX NSCLC = tested on: EKVX NSCLC
ACHN renal = tested on: ACHN renal
MDA-MB-231 breast = tested on: MDA-MB-231 breast
RPMI-8226 leukemia = tested on: RPMI-8226 leukemia
HCT-15 colon = tested on: HCT-15 colon
PC-3 prostate = tested on: PC-3 prostate

Row | Structure (SMILES) | TGI (HOP-92 NSCLC) [µM] | TGI (SF-295 CNS) [µM] | TGI (HCT-116 colon) [µM] | TGI (HS 578T breast) [µM] | TGI (EKVX NSCLC) [µM] | TGI (ACHN renal) [µM] | TGI (MDA-MB-231 breast) [µM] | TGI (RPMI-8226 leukemia) [µM] | TGI (HCT-15 colon) [µM] | TGI (PC-3 prostate) [µM] | GI50 (HOP-92 NSCLC) [µM] | GI50 (SF-295 CNS) [µM] | GI50 (HS 578T breast) [µM] | GI50 (EKVX NSCLC) [µM] | GI50 (ACHN renal) [µM] | GI50 (MDA-MB-231 breast) [µM] | GI50 (RPMI-8226 leukemia) [µM] | GI50 (HCT-15 colon) [µM] | GI50 (PC-3 prostate) [µM]
1 | O=C1C(NCCN2CCOCC2)=C(Cl)C(=O)c2ncccc21 | 5.76 | 2.77 | 1.14 | 2.87 | 2.79 | 2.31 | 4.71 | 0.377 | 1.52 | 1.95 |  |  |  |  |  |  |  |  | 
2 | CC(=O)N1c2ccccc2C(C)C1c1[nH]c2ccccc2c1C (configuration not stated) |  | 32 | 41.6 | 42.4 | > 100 | > 100 | 53.5 | 73 | > 100 | > 100 |  |  |  |  |  |  |  |  | 
3 | c1ccc(C2=NCCc3cc4c(cc32)OCO4)cc1 |  | > 100 |  | > 100 | > 100 |  | > 100 |  |  | > 100 |  |  |  |  |  |  |  |  | 
4 | C=CCN(c1cc(OC)c2[nH]cc(C)c2c1[N+](=O)[O-])S(C)(=O)=O |  | > 100 | > 100 | > 100 | > 100 | > 100 | > 100 | > 100 | > 100 | > 100 |  |  |  |  |  |  |  |  | 
5 | O=[N+]([O-])c1ccc(Cl)cc1N/N=C/c1cccc2cccnc12 |  | > 100 | > 100 | > 100 | > 100 | > 100 | > 100 | > 100 | > 100 | > 100 |  |  |  |  |  |  |  |  | 
6 | c1ccc(N=C2SC3=NCCN3C2=Nc2ccccc2)cc1 | 60.6 | 41.7 | 26.8 | > 100 |  |  | 60.5 | 83.8 | 61.4 | 60.6 |  |  |  |  |  |  |  |  | 
7 | CSc1nc2c(=O)n(-c3ccccc3)c(=S)n(-c3ccccc3)c2s1 | 80.5 | > 100 | > 100 | 94.7 |  | > 100 | > 100 | > 100 | > 100 | > 100 |  |  |  |  |  |  |  |  | 
8 | CC1(C)CC2(C)CC1CC2NC(=O)CCN1CCOCC1 (configuration not stated) | > 100 | > 100 | > 100 | > 100 | > 100 | > 100 | > 100 |  |  | > 100 |  |  |  |  |  |  |  |  | 
9 | CC1(CC2=C(C(=O)NCCO[Si](C)(C)C(C)(C)C)C3(OCCO3)C2=O)OCCO1 | > 100 | > 100 | > 100 | > 100 | > 100 | > 100 | > 100 |  | > 100 | > 100 |  |  |  |  |  |  |  |  | 
10 | Nn1c(Cc2ccccc2)n[nH]c1=O |  | > 100 | > 100 | > 100 | > 100 | > 100 | > 100 | > 100 | > 100 | > 100 |  |  |  |  |  |  |  |  | 
11 | C(=C\c1cc(-c2ccc3ccccc3n2)nc2ccc3ccccc3c12)/c1ccc2ccccc2n1 |  | > 100 | > 100 | > 100 | > 100 | > 100 | > 100 | > 100 | > 100 | > 100 |  |  |  |  |  |  |  |  | 
12 | Oc1cccc(-c2cn3cc(C(F)(F)F)ccc3n2)c1 | > 100 | 94 | > 100 | > 100 | 70.9 | > 100 | > 100 |  | > 100 | > 100 |  |  |  |  |  |  |  |  | 
13 | Clc1c(C(Cl)(Cl)Cl)nsc1N1CCCCC1 |  | 66.8 | 76.6 | > 100 | 79.7 | > 100 | 77.5 | 40.9 | 79.9 | 95.3 |  |  |  |  |  |  |  |  | 
14 | Cc1nc(C(N)=S)sc1C(=O)C/C(=N/N)C(=O)Nc1ccc(Cl)cc1 |  | > 100 | > 100 | > 100 | > 100 | > 100 | > 100 | > 100 |  | > 100 |  |  |  |  |  |  |  |  | 
15 | Oc1ccc(C#CCOc2ccccc2)cc1CNCCN(Cc1ccccn1)Cc1ccccn1 | 4.1 | 1.89 |  | 6.14 | 3.33 | 2.38 | 2.96 | 6.2 | 3.55 | 4.06 | 1.57 | 0.552 | 1.69 | 1.24 | 1.16 | 1.38 | 1.53 | 1.13 | 0.799
16 | O=C(OCc1ccccc1)N1CCN(C(=O)OCc2ccccc2)CCN(C(=O)OCc2ccccc2)CCN(C(=O)OCc2ccccc2)CCN(C(=O)OCc2ccccc2)CC1 | > 100 | > 100 | > 100 | > 100 | > 100 | > 100 | > 100 |  | > 100 | > 100 |  |  |  |  |  |  |  |  | 
